PMC8507260, “A2E-induced inflammation and angiogenesis in RPE cells in vitro are modulated by PPAR-α, -β/δ, -γ, and RXR antagonists and by norbixin” (Aging (Albany NY), 2021)
Entries after “also recorded” stand apart in the source; their conditions may differ. Like-named read-outs stand apart in the source and are kept apart here.

Assays:
PPAR-β/δ = biological target: T1, PPAR-β/δ (Homo sapiens, UniProt Q03181); assay: In vitro antagonist assay on PPAR-β/δ; type: biochemical
T1 sequence (Q03181 1-441): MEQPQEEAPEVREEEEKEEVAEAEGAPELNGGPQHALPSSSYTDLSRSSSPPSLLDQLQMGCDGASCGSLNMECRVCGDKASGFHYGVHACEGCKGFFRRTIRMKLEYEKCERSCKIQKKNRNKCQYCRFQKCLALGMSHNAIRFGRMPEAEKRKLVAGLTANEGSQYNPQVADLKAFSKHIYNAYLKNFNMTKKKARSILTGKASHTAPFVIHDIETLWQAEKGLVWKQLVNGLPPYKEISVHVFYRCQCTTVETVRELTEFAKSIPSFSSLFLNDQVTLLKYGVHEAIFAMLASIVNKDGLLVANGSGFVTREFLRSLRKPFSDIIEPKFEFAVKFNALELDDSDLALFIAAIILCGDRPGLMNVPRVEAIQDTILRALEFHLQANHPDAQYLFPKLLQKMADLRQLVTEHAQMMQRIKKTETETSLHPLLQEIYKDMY
From the text: The binding and activity of norbixin on PPARs remains controversial, thus, firstly, we performed competition experiments in vitro between norbixin and [^3H] GW7647, an agonist of PPAR-α, and [^3H] rosiglitazone, an agonist of PPAR-γ. […] Secondly, we tested whether norbixin could induce the transactivation of PPAR-α, -β/δ or -γ in the context of RPE cells in vitro by co-transfecting porcine RPE cells with a plasmid expressing each of the full-length PPAR isoforms and a plasmid expressing luciferase under the control of the PPAR response element. […] Then, we wanted to determine if norbixin could modulate the transactivation of PPAR isoforms induced by specific agonists.

RXR = assay: Endogenous RXR transactivation, luciferase reporter in porcine RPE cells; type: cell-based
Procedure: (§1) Pig eyes were obtained from a local slaughterhouse and transported to the laboratory in ice-cold Ringer solution. After removal of the anterior segment of the eye, the vitreous and neural retina was separated from the RPE and removed. The eyecup was washed twice with phosphate buffer saline (PBS), filled with trypsin (0.25% in PBS) and incubated at 37°C for 1.5 h. RPE cells were harvested by gently pipetting, centrifuged to remove trypsin and re-suspended in Dulbecco’s Modified Eagle Medium (DMEM) supplemented with 20% (v/v) foetal-calf serum (DMEM20%FCS) and 0.1% gentamycin. Cells were seeded into 60 mm diameter Petri dishes, cultured in an atmosphere of 5% CO2/95% air at 37°C, and supplied with fresh medium after 24 hours and 4 days in vitro. For experiments aimed at measuring mRNA or protein expression in RPE, cells were trypsinized after one week in culture and transferred to 24-well or 6-well plates at a density of 1.5 × 10^5 cells/cm^2 in DMEM2%FCS. Norbixin or agonists were added to the medium 24 h after seeding, and antagonists were added to the medium 24 h later. A2E treatment was performed during 19 h before cellular sample preparation. All the drugs used in these experiments were prepared as stock solutions in DMSO.
(§2) After one week in culture, cells were trypsinized and transferred to a 96-well plate at a density of 6 × 10^4 cells/cm^2 in DMEM2%FCS. The next day, cells were transfected using the Cignal Reporter Assay Kits for PPAR, RXR, AP-1 and NF-κB, according to the manufacturer’s specifications. To measure the specific activation of PPAR isoforms, cells were also co-transfected with PPAR-α, PPAR-β/δ or PPAR-γ expression vectors. Transfection was performed with Lipofectamine and Plus Reagent in serum-free medium. 3 h after the transfection, the medium was replaced and treatments with the molecules to assay were performed. Luciferase activity was measured the next day using the Dual-Luciferase Reporter Assay System. The measurements were performed with a luminometer (Infinite M1000 from Tecan, Mannedorf, Switzerland). Firefly: Renilla activity ratios were calculated for each condition and ratios from transcription factor-responsive reporter transfections were divided by ratios from negative control transfections to obtain relative luciferase unit, as described by the manufacturer. At least 3 independent transfections were performed in triplicate for each condition.

NF-κB = NF-κB transactivation, luciferase reporter in porcine RPE cells; type: cell-based; settings: A2E 20 μM, T007907 10 μM
Procedure: as §1, §2

IL-8 = IL-8 mRNA expression by quantitative RT-PCR in porcine RPE cells; type: cell-based
Procedure: as §1
(§3) Total RNA was extracted using the NucleoSpin® RNA kit according to manufacturer’s instructions. RT of 500 ng of RNA was performed using the SuperScript III Reverse Transcriptase following the manufacturer’s instructions. Five ng of cDNA were amplified using the SYBR GREEN real-time PCR method. PCR primers for target genes and housekeeping gene GAPDH were designed using Primer3Plus Bioinformatic software (Table 2). The RT-PCR using the StepOne Plus (Life Technologies, Carlsbad, CA, USA) consisted of incubation at 50°C for 5 min followed by 40 cycles of 95°C for 15 s and of 60°C for 1 min. The reaction was completed by a melt curve stage at 95°C for 15 s, 60°C for 1 min, 95°C for 15 s and a final step at 60°C for 15 s. The relative mRNA expression was calculated using the comparative threshold method (Ct-method) with GAPDH for normalization. All experimental conditions were processed in triplicate and each experiment was done at least 3 times.

CCL2 = CCL2 mRNA expression by quantitative RT-PCR in porcine RPE cells; type: cell-based
Procedure: as §1, with “All the drugs used in these experiments were prepared as stock solutions in DMSO.” left out
Total RNA was extracted using the NucleoSpin® RNA kit according to manufacturer’s instructions. […] The relative mRNA expression was calculated using the comparative threshold method (Ct-method) with GAPDH for normalization. […]

VEGF = VEGF mRNA expression by quantitative RT-PCR in porcine RPE cells; type: cell-based
Procedure: as §1
as §3, with “All experimental conditions were processed in triplicate and each experiment was done at least 3 times.” left out

PPAR-γ = biological target: T2, PPAR-γ (Homo sapiens, UniProt P37231); design: Eurofins Cerep (contract laboratory that ran the assay); method as in PMID 19891958; settings: cited from earlier work
T2 sequence (P37231 1-505): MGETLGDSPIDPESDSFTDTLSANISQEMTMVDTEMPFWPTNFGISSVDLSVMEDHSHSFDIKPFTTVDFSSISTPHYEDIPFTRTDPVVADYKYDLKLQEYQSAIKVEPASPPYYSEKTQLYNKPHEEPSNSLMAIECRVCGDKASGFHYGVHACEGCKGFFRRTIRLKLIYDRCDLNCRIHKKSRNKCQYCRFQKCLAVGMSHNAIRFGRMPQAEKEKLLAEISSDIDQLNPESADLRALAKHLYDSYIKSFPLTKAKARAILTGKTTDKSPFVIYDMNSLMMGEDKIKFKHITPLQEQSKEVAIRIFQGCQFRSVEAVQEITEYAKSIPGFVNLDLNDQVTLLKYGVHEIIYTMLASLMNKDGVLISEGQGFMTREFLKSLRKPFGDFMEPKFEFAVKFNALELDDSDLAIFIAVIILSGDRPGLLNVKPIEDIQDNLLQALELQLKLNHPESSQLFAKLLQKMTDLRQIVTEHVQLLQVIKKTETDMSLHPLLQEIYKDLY

RPE cells = assay: Cell viability of RPE cells in culture without blue light; type: cell-based, porcine; settings: cell culture conditions for cytokine dosage, absence of blue light exposure

Row | IC50 (PPAR-β/δ) [µM] | Structure (SMILES) | inhibition of RXR transactivation induced by A2E (RXR; A2E 20 μM, NBX 20 μM, HX531 5 μM) [%] | inhibition of RXR transactivation induced by HX630 (RXR; HX630 5 μM, NBX 20 μM) | transactivation of RXRs by the compound alone (RXR; HX630 5 μM, NBX 20 μM, vs DMSO control) | inhibition of NF-κB transactivation induced by A2E (NF-κB; NBX 20 μM, HX531 5 μM) [%] | inhibition of IL-8 mRNA expression induced by A2E (IL-8; NBX 20 μM + A2E 30 μM) | effect on CCL2 mRNA expression induced by A2E (CCL2; NBX 20 μM + A2E 30 μM) | effect on VEGF mRNA expression induced by A2E (VEGF; NBX 20 μM with A2E 30 μM, MK886 1 μM, GSK3787 1 μM, T007907 10 μM, alone or as mixture, with A2E 20 μM) | PPAR-γ transactivation in 3T3-L1 adipocytes (PPAR-γ; norbixin at 20 μM) | PPAR-γ transactivation in 3T3-L1 adipocytes (PPAR-γ; norbixin at 70 μM) | minimal concentration inducing transactivation of endogenous RXRs (RXR; dose-response, porcine RPE cells) [µM] | effect of the compound alone on NF-κB transactivation (NF-κB; vs DMSO control) | effect of the compound alone on IL-8 mRNA expression (IL-8; vs DMSO control) | effect of the compound alone on CCL2 mRNA expression (CCL2; A2E 30 μM vs DMSO control) | enhancement of VEGF mRNA expression by the compound alone (VEGF; A2E 30 μM vs DMSO control) | cell viability (RPE cells)
1 | 9.9 | CC(/C=C/C=C(C)/C=C/C(=O)O)=C\C=C\C=C(C)\C=C\C=C(C)\C=C\C(=O)O (stereo in doubt) [norbixin, 9’-cis-norbixin] | 49 | did not inhibit | did not induce the transactivation | 73 | approximately 23 fold | further increased | significantly inhibited | does not induce; also recorded: did not induce | induces a limited transactivation |  |  |  |  |  | 
2 |  | CC(C=CC1=C(C)CCCC1(C)C)=CC=CC(C)=Cc1cc(C=CC=C(C)C=CC2=C(C)CCCC2(C)C)cc[n+]1CCO [A2E, N-retinylidene-N-retinylethanolamine] |  |  |  |  |  |  |  |  |  | 20 | induces the transactivation | induces the expression | up-regulated | approximately 9 fold | not diminished
